Measurements published in patent US12448369B2 (Edgewise Therapeutics, Inc., priority 2023, dated 2025).

What follows are compounds tested on Rabbit Psoas myofibrils (skeletal myosin ATPase) (assay: Myofibril ATPase assay, rabbit psoas (skeletal) myofibrils). Conditions: Y75 value (no ‡ mark); rabbit psoas myofibrils.
Type: biochemical
Outline: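 Values derive from concentration–response fits of NADH consumption rates at 340 nm, normalized to vehicle-only wells, as Y75 or Y125. Myofibril ATP turnover was linked to NADH via PK/LDH in Ca/EGTA-buffered PIPES, pH 7.0, and read over 75 min.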
Cc1c([C@H](C)C(=O)N[C@@H](C)c2ccc(F)cc2F)c(=O)[nH]c2ccc(F)c(F)c12 (single isomer, unassigned) [compound 112] was tested, and the “Skeletal EC25” value was 30 nM.
O=C(Cc1cc2cc(F)ccc2[nH]c1=O)N1CC[C@@H]2C[C@H]1c1ccccc12 (single isomer, unassigned) [compound 4503] was tested, and the “Skeletal EC25” value was 1290 nM.
C[C@@H](NC(=O)C(F)(F)c1cc2c(F)c(F)ccc2[nH]c1=O)c1cc(C#N)ccn1 (single isomer, unassigned) [compound 2557] was tested, and the “Skeletal EC25” value was 6040 nM.
For Cc1c(CC(=O)N[C@@H](C)c2ncc(C#N)cc2F)c(=O)[nH]c2cccc(F)c12 [compound 52], the “Skeletal EC25” value was 20 nM.
C[C@H](NC(=O)Cc1cc2c(F)c(F)ccc2[nH]c1=O)c1ccc(F)cc1F [compound 118] was tested, and the “Skeletal EC25” value was 30 nM.
For C[C@@H](NC(=O)Cc1c(C2CC2)c2cc(F)ccc2[nH]c1=O)c1ccc(C#N)cc1F [compound 73], the “Skeletal EC25” value was 20 nM.
In the case of C[C@H](NC(=O)Cc1c(C(F)F)c2cc(F)ccc2[nH]c1=O)c1ccc(F)cc1F [compound 106], the “Skeletal EC25” value is reported as 40 nM.
In the case of COc1ccc2[nH]c(=O)c(C(C)C(=O)N[C@@H](C)c3ccc(F)cc3F)cc2c1Cl (stereo partly drawn) [compound 87], the “Skeletal EC25” value is reported as 100000 nM.
Cc1c(CC(=O)N[C@@H](C)c2ncc(C#N)cn2)c(=O)[nH]c2cccc(F)c12 (single isomer, unassigned) [compound 2042] was tested, and the “Skeletal EC25” value was 2390 nM.
With Cc1c(CC(=O)N[C@@H](C)c2cnc(C#N)nc2)c(=O)[nH]c2cc(F)c(F)cc12 (single isomer, unassigned) [compound 2075] the “Skeletal EC25” value was 40 nM.
For C[C@H](NC(=O)Cc1cc2cc(F)c(F)cc2[nH]c1=O)c1cnc(C#N)nc1 [compound 1075], the “Skeletal EC25” value was 8390 nM.
In the case of Cc1c(C(F)(F)C(=O)N[C@H](C)c2ncc(C#N)cn2)c(=O)[nH]c2cccc(C#N)c12 (single isomer, unassigned) [compound 4838], the “Skeletal EC25” value is reported as 280 nM.
In the case of Cc1nc(C#N)ccc1[C@H](C)NC(=O)Cc1c(C)c2cc(F)ccc2[nH]c1=O [compound 1051], the “Skeletal EC25” value is reported as 30 nM.
In the case of Cc1ccncc1[C@@H](C)NC(=O)Cc1c(C)c2c(C)c(F)ccc2[nH]c1=O [compound 1046], the “Skeletal EC25” value is reported as 40 nM.
With Cc1cc(F)cnc1[C@@H](C)NC(=O)C1(c2cc3c(F)c(F)ccc3[nH]c2=O)CC1 (single isomer, unassigned) [compound 4805] the “Skeletal EC25” value was 1910 nM.
In the case of C[C@H](NC(=O)Cc1cc2c(F)c(F)ccc2[nH]c1=O)c1ncc(F)cc1F [compound 34], the “Skeletal EC25” value is reported as 20 nM.
In the case of Cc1cc([C@@H](C)NC(=O)Cc2c(C)c3cc(F)ccc3[nH]c2=O)ncc1F [compound 1060], the “Skeletal EC25” value is reported as 100000 nM.
Cc1c(CC(=O)N[C@H](C)c2ccc(C#N)cc2F)c(=O)[nH]c2ccc(F)c(C(F)(F)F)c12 [compound 37] was tested, and the “Skeletal EC25” value was 20 nM.

Same assay, conditions: Y75 value: concentration required to reduce myosin ATP-ase activity by 25%; Rabbit Psoas Prep pCa 25 GEOM_MEAN
With C[C@H](NC(=O)Cc1cc2c(F)c(F)ccc2[nH]c1=O)c1cc(C#N)c(F)s1 (single isomer, unassigned) [compound 4003] the “Skeletal EC25” value was 1060 nM.

Each compound was assayed against T1, Porcine ventricle myofibrils (ventricular myosin ATPase) (Sus scrofa, UniProt P79293) (assay: Myofibril ATPase assay, porcine ventricle myofibrils). Conditions: Y75 value (no ‡ mark); porcine ventricle myofibrils.
T1 construct: Myofibrils from porcine cardiac muscle was isolated from the left ventricle of Yucatan minipigs; tissue Exemplar Genetics; host or cells: left ventricle of Yucatan minipigs, myofibrils prepared in house
T1 sequence (P79293 whole entry): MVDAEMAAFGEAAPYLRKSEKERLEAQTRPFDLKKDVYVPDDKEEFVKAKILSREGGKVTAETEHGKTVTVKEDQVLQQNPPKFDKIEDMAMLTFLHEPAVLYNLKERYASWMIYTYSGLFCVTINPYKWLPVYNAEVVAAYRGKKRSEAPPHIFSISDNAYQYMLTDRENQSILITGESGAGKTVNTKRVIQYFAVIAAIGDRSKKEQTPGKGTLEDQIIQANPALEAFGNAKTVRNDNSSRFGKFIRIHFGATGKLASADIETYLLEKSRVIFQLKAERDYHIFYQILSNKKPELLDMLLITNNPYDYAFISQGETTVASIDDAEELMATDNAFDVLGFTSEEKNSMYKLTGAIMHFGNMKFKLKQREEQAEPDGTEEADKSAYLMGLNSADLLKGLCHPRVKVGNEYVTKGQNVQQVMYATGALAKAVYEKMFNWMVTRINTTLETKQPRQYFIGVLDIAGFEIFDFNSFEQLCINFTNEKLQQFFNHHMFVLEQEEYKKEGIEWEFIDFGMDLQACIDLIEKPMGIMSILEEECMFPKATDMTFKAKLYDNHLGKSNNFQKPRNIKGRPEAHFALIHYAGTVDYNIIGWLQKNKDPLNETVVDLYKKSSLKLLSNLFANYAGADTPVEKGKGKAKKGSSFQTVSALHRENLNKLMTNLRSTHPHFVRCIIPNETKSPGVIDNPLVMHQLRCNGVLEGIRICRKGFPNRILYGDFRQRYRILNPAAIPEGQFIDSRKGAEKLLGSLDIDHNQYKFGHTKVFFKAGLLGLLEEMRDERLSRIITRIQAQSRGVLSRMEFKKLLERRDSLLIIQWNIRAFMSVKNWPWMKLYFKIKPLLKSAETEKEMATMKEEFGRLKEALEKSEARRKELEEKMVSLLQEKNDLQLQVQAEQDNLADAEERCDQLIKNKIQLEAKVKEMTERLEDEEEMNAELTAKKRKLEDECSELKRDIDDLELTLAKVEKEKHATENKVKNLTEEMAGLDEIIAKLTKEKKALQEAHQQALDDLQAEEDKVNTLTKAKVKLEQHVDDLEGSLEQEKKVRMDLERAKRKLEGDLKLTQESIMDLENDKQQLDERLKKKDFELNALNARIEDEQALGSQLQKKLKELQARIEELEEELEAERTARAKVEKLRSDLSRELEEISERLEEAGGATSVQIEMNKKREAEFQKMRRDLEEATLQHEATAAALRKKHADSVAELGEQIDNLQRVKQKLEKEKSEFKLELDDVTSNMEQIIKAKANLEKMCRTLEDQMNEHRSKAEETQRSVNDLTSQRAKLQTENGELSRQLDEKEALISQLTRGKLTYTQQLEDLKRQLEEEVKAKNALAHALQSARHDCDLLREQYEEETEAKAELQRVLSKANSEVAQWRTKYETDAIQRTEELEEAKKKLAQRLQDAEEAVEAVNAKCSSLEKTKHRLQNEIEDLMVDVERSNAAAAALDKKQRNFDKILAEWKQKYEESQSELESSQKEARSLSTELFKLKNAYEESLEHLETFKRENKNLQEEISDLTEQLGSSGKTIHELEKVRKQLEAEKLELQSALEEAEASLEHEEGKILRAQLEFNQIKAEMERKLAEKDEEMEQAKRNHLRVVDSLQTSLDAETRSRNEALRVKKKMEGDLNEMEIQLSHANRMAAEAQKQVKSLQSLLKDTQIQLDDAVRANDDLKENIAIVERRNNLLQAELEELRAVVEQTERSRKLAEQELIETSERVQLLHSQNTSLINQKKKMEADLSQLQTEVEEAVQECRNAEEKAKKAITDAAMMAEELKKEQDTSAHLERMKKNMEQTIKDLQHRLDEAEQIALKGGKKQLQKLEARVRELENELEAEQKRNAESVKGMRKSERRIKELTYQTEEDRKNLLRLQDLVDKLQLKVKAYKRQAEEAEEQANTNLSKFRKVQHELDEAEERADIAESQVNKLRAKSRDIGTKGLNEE
Type: biochemical, porcine (Yucatan minipigs)
Outline: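 Read-out: A340 kinetic, NADH consumption coupled to ADP via PK-LDH, 75 min. Yucatan minipig LV myofibrils, pCa buffer (PIPES/CaCl2/EGTA, pH 7.0). Linear-regression slope (mAU/min), vehicle = 100%, 4PL fit; Y75 or Y125 reported.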
Cc1c([C@H](C)C(=O)N[C@@H](C)c2ccc(F)cc2F)c(=O)[nH]c2ccc(F)c(F)c12 (single isomer, unassigned) [compound 112] was tested, and the “Ventricular EC25” value was 310 nM.
In the case of O=C(Cc1cc2cc(F)ccc2[nH]c1=O)N1CC[C@@H]2C[C@H]1c1ccccc12 (single isomer, unassigned) [compound 4503], the “Ventricular EC25” value is reported as 2980 nM.
C[C@@H](NC(=O)C(F)(F)c1cc2c(F)c(F)ccc2[nH]c1=O)c1cc(C#N)ccn1 (single isomer, unassigned) [compound 2557] was tested, and the “Ventricular EC25” value was 7270 nM.
Cc1c(CC(=O)N[C@@H](C)c2ncc(C#N)cc2F)c(=O)[nH]c2cccc(F)c12 [compound 52] was tested, and the “Ventricular EC25” value was 100 nM.
C[C@H](NC(=O)Cc1cc2c(F)c(F)ccc2[nH]c1=O)c1ccc(F)cc1F [compound 118] was tested, and the “Ventricular EC25” value was 300 nM.
In the case of C[C@@H](NC(=O)Cc1c(C2CC2)c2cc(F)ccc2[nH]c1=O)c1ccc(C#N)cc1F [compound 73], the “Ventricular EC25” value is reported as 100000 nM.
With C[C@H](NC(=O)Cc1c(C(F)F)c2cc(F)ccc2[nH]c1=O)c1ccc(F)cc1F [compound 106] the “Ventricular EC25” value was 200 nM.
With COc1ccc2[nH]c(=O)c(C(C)C(=O)N[C@@H](C)c3ccc(F)cc3F)cc2c1Cl (stereo partly drawn) [compound 87] the “Ventricular EC25” value was 100000 nM.
For Cc1c(CC(=O)N[C@@H](C)c2ncc(C#N)cn2)c(=O)[nH]c2cccc(F)c12 (single isomer, unassigned) [compound 2042], the “Ventricular EC25” value was 2110 nM.
For Cc1c(CC(=O)N[C@@H](C)c2cnc(C#N)nc2)c(=O)[nH]c2cc(F)c(F)cc12 (single isomer, unassigned) [compound 2075], the “Ventricular EC25” value was 520 nM.
For C[C@H](NC(=O)Cc1cc2cc(F)c(F)cc2[nH]c1=O)c1cnc(C#N)nc1 [compound 1075], the “Ventricular EC25” value was 15410 nM.
For Cc1c(C(F)(F)C(=O)N[C@H](C)c2ncc(C#N)cn2)c(=O)[nH]c2cccc(C#N)c12 (single isomer, unassigned) [compound 4838], the “Ventricular EC25” value was 3580 nM.
In the case of Cc1nc(C#N)ccc1[C@H](C)NC(=O)Cc1c(C)c2cc(F)ccc2[nH]c1=O [compound 1051], the “Ventricular EC25” value is reported as 260 nM.
In the case of Cc1ccncc1[C@@H](C)NC(=O)Cc1c(C)c2c(C)c(F)ccc2[nH]c1=O [compound 1046], the “Ventricular EC25” value is reported as 140 nM.
In the case of Cc1cc(F)cnc1[C@@H](C)NC(=O)C1(c2cc3c(F)c(F)ccc3[nH]c2=O)CC1 (single isomer, unassigned) [compound 4805], the “Ventricular EC25” value is reported as 100000 nM.
With C[C@H](NC(=O)Cc1cc2c(F)c(F)ccc2[nH]c1=O)c1ncc(F)cc1F [compound 34] the “Ventricular EC25” value was 50 nM.
Cc1cc([C@@H](C)NC(=O)Cc2c(C)c3cc(F)ccc3[nH]c2=O)ncc1F [compound 1060] was tested, and the “Ventricular EC25” value was 100000 nM.
Cc1c(CC(=O)N[C@H](C)c2ccc(C#N)cc2F)c(=O)[nH]c2ccc(F)c(C(F)(F)F)c12 [compound 37] was tested, and the “Ventricular EC25” value was 50 nM.

Same assay, conditions: Y75 value: concentration required to reduce myosin ATP-ase activity by 25%; Porcine Ventricle Prep pCa 25 GEOM_MEAN
With C[C@H](NC(=O)Cc1cc2c(F)c(F)ccc2[nH]c1=O)c1cc(C#N)c(F)s1 (single isomer, unassigned) [compound 4003] the “Ventricular EC25” value was 100000 nM.

Each compound was assayed on Porcine atria myofibrils (atrial myosin ATPase) (assay: Myofibril ATPase assay, porcine atria myofibrils). Conditions: Y75 value (no ‡ mark); porcine atria myofibrils.
Type: biochemical
Outline: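 Atrial myofibril ATPase measured by NADH-coupled absorbance at 340 nm; vehicle-normalized slopes fitted to give Y75 or Y125 values.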
Cc1c([C@H](C)C(=O)N[C@@H](C)c2ccc(F)cc2F)c(=O)[nH]c2ccc(F)c(F)c12 (single isomer, unassigned) [compound 112] was tested, and the “Atrial EC25” value was 60 nM.
In the case of O=C(Cc1cc2cc(F)ccc2[nH]c1=O)N1CC[C@@H]2C[C@H]1c1ccccc12 (single isomer, unassigned) [compound 4503], the “Atrial EC25” value is reported as 11520 nM.
C[C@@H](NC(=O)C(F)(F)c1cc2c(F)c(F)ccc2[nH]c1=O)c1cc(C#N)ccn1 (single isomer, unassigned) [compound 2557] was tested, and the “Atrial EC25” value was 3660 nM.
For Cc1c(CC(=O)N[C@@H](C)c2ncc(C#N)cc2F)c(=O)[nH]c2cccc(F)c12 [compound 52], the “Atrial EC25” value was 60 nM.
C[C@H](NC(=O)Cc1cc2c(F)c(F)ccc2[nH]c1=O)c1ccc(F)cc1F [compound 118] was tested, and the “Atrial EC25” value was 60 nM.
For C[C@@H](NC(=O)Cc1c(C2CC2)c2cc(F)ccc2[nH]c1=O)c1ccc(C#N)cc1F [compound 73], the “Atrial EC25” value was 100000 nM.
C[C@H](NC(=O)Cc1c(C(F)F)c2cc(F)ccc2[nH]c1=O)c1ccc(F)cc1F [compound 106] was tested, and the “Atrial EC25” value was 50 nM.
COc1ccc2[nH]c(=O)c(C(C)C(=O)N[C@@H](C)c3ccc(F)cc3F)cc2c1Cl (stereo partly drawn) [compound 87] was tested, and the “Atrial EC25” value was 100000 nM.
With Cc1c(CC(=O)N[C@@H](C)c2ncc(C#N)cn2)c(=O)[nH]c2cccc(F)c12 (single isomer, unassigned) [compound 2042] the “Atrial EC25” value was 550 nM.
With Cc1c(CC(=O)N[C@@H](C)c2cnc(C#N)nc2)c(=O)[nH]c2cc(F)c(F)cc12 (single isomer, unassigned) [compound 2075] the “Atrial EC25” value was 70 nM.
For C[C@H](NC(=O)Cc1cc2cc(F)c(F)cc2[nH]c1=O)c1cnc(C#N)nc1 [compound 1075], the “Atrial EC25” value was 16510 nM.
In the case of Cc1c(C(F)(F)C(=O)N[C@H](C)c2ncc(C#N)cn2)c(=O)[nH]c2cccc(C#N)c12 (single isomer, unassigned) [compound 4838], the “Atrial EC25” value is reported as 920 nM.
For Cc1nc(C#N)ccc1[C@H](C)NC(=O)Cc1c(C)c2cc(F)ccc2[nH]c1=O [compound 1051], the “Atrial EC25” value was 140 nM.
Cc1ccncc1[C@@H](C)NC(=O)Cc1c(C)c2c(C)c(F)ccc2[nH]c1=O [compound 1046] was tested, and the “Atrial EC25” value was 60 nM.
Cc1cc(F)cnc1[C@@H](C)NC(=O)C1(c2cc3c(F)c(F)ccc3[nH]c2=O)CC1 (single isomer, unassigned) [compound 4805] was tested, and the “Atrial EC25” value was 1660 nM.
With C[C@H](NC(=O)Cc1cc2c(F)c(F)ccc2[nH]c1=O)c1ncc(F)cc1F [compound 34] the “Atrial EC25” value was 20 nM.
Cc1cc([C@@H](C)NC(=O)Cc2c(C)c3cc(F)ccc3[nH]c2=O)ncc1F [compound 1060] was tested, and the “Atrial EC25” value was 13110 nM.
In the case of Cc1c(CC(=O)N[C@H](C)c2ccc(C#N)cc2F)c(=O)[nH]c2ccc(F)c(C(F)(F)F)c12 [compound 37], the “Atrial EC25” value is reported as 40 nM.

Same assay, conditions: Y75 value: concentration required to reduce myosin ATP-ase activity by 25%; Porcine Atria Prep pCa 25 GEOM_MEAN
With C[C@H](NC(=O)Cc1cc2c(F)c(F)ccc2[nH]c1=O)c1cc(C#N)c(F)s1 (single isomer, unassigned) [compound 4003] the “Atrial EC25” value was 100000 nM.
